Data set [1] in a line: Functional metabolic assay to measure dose dependent changes in cell viability from drug treatment in HeLa-ACE2 cells. Hela-ACE2 cells are seeded prior to drug treatment, then incubated in MTT (3-[4,5-dimethylthiazol-2-yl]-2,5- diphenyltetrazolium bromide) labelling reagent and SDS. Absorbance is measured at 560 and 750 nm and analyzed by Gen5 software. The assay has been performed by Icahn School of Medicine at Mount Sinai. Format: toxicity, cell-based. The settings on record: human.

A short description of data set [2]: Functional metabolic assay to measure dose dependent changes in cell viability from drug treatment in Vero E6/TMPRSS2 cells (cotreated with P-gp inhibitor, Elacridar). Cells are treated with antiviral candidates that have been serially diluted. Cytotoxicity is reported via measuring absorbance and analysis of MTT/MTS assays in uninfected cells. The assay has been performed by Icahn School of Medicine at Mount Sinai. It counts as toxicity, cell-based, VeroE6/TMPRSS2. To be noted: chlorocebus sabaeus. Background: Formazan colour is commonly taken as a measure of viable cells.

Data set [3] is described as follows: Functional metabolic assay to measure dose dependent changes in cell viability from drug treatment in iPSC-Pneumocyte cells. The cells are seeded then incubated in MTT (3-[4,5-dimethylthiazol-2-yl]-2,5- diphenyltetrazolium bromide) labeling reagent and SDS. Absorbance is measured at 560 and 750 nm and analyzed by Gen5 software. The assay has been performed by Icahn School of Medicine at Mount Sinai. Format: toxicity, cell-based. To be noted: human; for CC50: iPSC-Pneumocyte cells; for CC10: pneumocyte.

For data set [4], the system named is Middle East respiratory syndrome-related coronavirus. Put plainly: microbe, parasite or virus in culture. To be noted: Vero 76. Format: functional, Chlorocebus sabaeus.
The mark [5] stands for this setting: Vero E6/TMPRSS2 cells, with Elacridar (P-gp inhibitor), concentration not stated.

Values joined by “and” are separate entries in the source; they are usually repeats but may differ in a detail not shown here. Equal values may be shown once.

Turning to `CNC(=O)Cn1cc(-c2cc3c(N[C@@H](c4ccc5c(c4)S(=O)(=O)CCC5)C(C)C)ncnc3[nH]2)cn1`, the CC50 in data set [1] (HeLa-ACE2 cells) is over 20 µM; in data set [2] (setting [5]) it was over 5 µM; in data set [3], 1.7 µM. In addition, the CC10 in data set [1] (hela-ace2) was over 20 µM; in data set [2] (veroe6/tmprss2), over 5 µM; in data set [3], 1.528 µM.

Consider `CC(C)[C@@H](Nc1ncnc2[nH]c(C(=O)N[C@@H]3CCN(C)C3)cc12)c1ccc2c(c1)S(=O)(=O)CCC2`, for which the CC50 in data set [1] (HeLa-ACE2 cells) was over 20 µM; in data set [2] (setting [5]), over 5 µM; in data set [3], under 0.206 µM. Moreover, the CC10 is over 20 µM in data set [1] (hela-ace2), over 5 µM in data set [2] (veroe6/tmprss2) and under 0.206 µM in data set [3].

For the compound `CC(C)[C@H](Nc1ncnc2[nH]ccc12)c1ccc2c(c1)S(=O)(=O)CCC2`, the CC50 in data set [1] (HeLa-ACE2 cells) and in data set [2] (veroe6/tmprss2) was over 20 µM each time. The same compound showed a CC10 in data set [1] (hela-ace2) of over 20 µM.

Regarding `Cc1nn(C)cc1-c1cc2c(N[C@H](c3ccc4c(c3)S(=O)(=O)CCC4)C(C)C)ncnc2[nH]1`, the CC50 is over 20 µM in data set [1] (HeLa-ACE2 cells) and over 5 µM in data set [2] (setting [5]). Also, the CC10 in data set [1] (hela-ace2) is over 20 µM; in data set [2] (veroe6/tmprss2), over 5 µM.

Consider `CC(C)[C@H](Nc1ncnc2[nH]c(-c3cnn(C)c3C#N)cc12)c1ccc2c(n1)OCCO2`, for which the CC50 in data set [1] (HeLa-ACE2 cells) is over 20 µM; in data set [1] (hela-ace2), 12.5 µM; in data set [2] (setting [5]), over 5 µM. Further, the CC10 was > 20 µM and > 50 µM in data set [1] (hela-ace2); over 5 µM in data set [2] (veroe6/tmprss2).

Take `CC(C)[C@@H](Nc1ncnc2[nH]c(-c3cnn(C)c3C#N)cc12)c1ccc2c(n1)OCCO2`: the CC10 was > 50 µM and > 20 µM in data set [1] (hela-ace2); over 5 µM in data set [2] (veroe6/tmprss2); 5.176 µM in data set [3]. Further, the CC50 in data set [1] (hela-ace2) is over 50 µM; in data set [2] (setting [5]), over 5 µM; in data set [3] it was 6.02 µM.

Consider `COc1ccc([C@H](Cc2nnn[nH]2)NC(=O)c2ncnc3[nH]ccc23)cc1`, for which the CC50 is over 20 µM in data set [1] (HeLa-ACE2 cells) and over 5 µM in data set [2] (setting [5]). In addition, the CC10 in data set [1] (hela-ace2) is over 20 µM; in data set [2] (veroe6/tmprss2), over 5 µM.

As to `CNCc1cc(-c2cc3c(N[C@@H](c4ccc5c(c4)S(=O)(=O)CCC5)C(C)C)ncnc3[nH]2)co1`, the CC50 in data set [1] (HeLa-ACE2 cells) was over 20 µM; in data set [2] (setting [5]), over 5 µM; in data set [3], over 50 µM. The CC10 in data set [1] (hela-ace2) is over 20 µM; in data set [2] (veroe6/tmprss2), over 5 µM; in data set [3], over 50 µM.

For the compound `CNC(=O)c1c[nH]c2ncnc(N[C@H](c3ccc4c(c3)S(=O)(=O)CCC4)C(C)C)c12`, the CC50 in data set [1] (HeLa-ACE2 cells) was over 20 µM; in data set [4], over 32 µM; in data set [3], over 50 µM. Further, the CC10 in data set [1] (hela-ace2) was over 20 µM; in data set [3], over 50 µM.

For `C[C@H](C(=O)O)[C@@H](NC(=O)c1ncnc2[nH]ccc12)c1ccc(Br)cc1`, the CC50 in data set [1] (HeLa-ACE2 cells) was over 20 µM; in data set [2] (setting [5]), over 5 µM. Also, the CC10 was over 20 µM in data set [1] (hela-ace2) and over 5 µM in data set [2] (veroe6/tmprss2).

For the origin of these results see ChEMBL document CHEMBL5441451, “ASAP - In vitro cytotoxicity” (2024).
